“Also recorded” adds a separate entry of the source. Where two headings read alike, the source gives them in different places.
Experiments:
HIV isolate (KP5mvcR) = experiment: microbe, parasite or virus in culture; format: cell-based, HIV-1; details: for SI (selectivity index): CC50/IC50, TZM-bl cells, KP-5mvcR; for IC50: read-out: IC50 KP-5mvcR
From the text: (§1) In this Example, TZM-bl cells (available from NIH AIDS Reagent Program (https://www.aidsreagent.org/Index.cfm)) were used for individual evaluations. TZM-bl cells have CD4/CCR5/CXCR4 on the surface and express luciferase when infected with HIV. In this manner, TZM-bl cells serve as indicator cells. In the cells, β-galactosidase gene linked to HIV-1 LTR sequence is integrated. When the cells are infected with HIV-1, the tat gene of HIV-1 expresses a transcriptional activator Tat, which acts on the promoter region of LTR to express β-galactosidase. When a substrate is added, enzymatic cleavage occurs to produce galactose and luciferin. Luciferin is oxidized by luciferase to generate chemiluminescence, which can be detected by a luminometer to determine the number of cells infected with HIV-1.
2) IC50 (Calculation of Anti-HIV Activity)
After each compound was serially diluted, TZM-bl cells (1×10^4) and 100TCID50 of HIV isolate (KP5mvcR) were added, and then, cultured for 48 hours. Thereafter, the cells were collected and a Luc reporter reagent was added. The amount of luminescence was measured to calculate the inhibition rate of infection (IC50). The HIV isolate (KP5mvcR) is an MVC resistant HIV clone, which was obtained by subjecting a clinical isolate KP-5 (YTA) to passage culture with PM1 CCR5 cells in the presence of MVC over 48 passages to obtain MVC resistant KP-5Env, which was inserted into NL43 vector (Yoshimura K, et al., J. Gen. Virol., 95, 1816-1826, 2014).

[1] = In vitro decomposition releasing the alkyl or PEG chain in PBS; format: physicochemical; details: PBS of pH7.4 at 37° C.
Protocol: The compound obtained in Example 5 (YIS-527) has an alkyl chain bound to a side chain of YIR-821 via a —C(═O)O— group, and it is assumed that the compound is hydrolyzed in vitro and in vivo. Accordingly, in this Example, an alkyl chain released in vitro was measured.
With respect to compound (YIS-540) having a PEG chain bound to a side chain of YIR-821 via a —C(═O)O— group obtained in Example 6, the PEG chain released in vitro was measured in the same manner as in Example 7.

[2] = Cytotoxicity (CC50) in TZM-bl cells, luminescence (CTG); format: cell-based; details: human
From the text: as §1, with “([…].org/Index.cfm))” for “(https://www.aidsreagent.org/Index.cfm))”, “HIV-1. […] After each compound was serially diluted, TZM-bl cells (1×10^4) were added, cultured for 48 hours and collected. A Luc reporter reagent was added and the amount of luminescence (reagent: CTG) was measured […].” for “HIV-1.”

TZM-bl cells = experiment: as above; format: cell-based; details: TZM-bl cells, cultured for 48 hours
From the text: as §1, with “([…].org/Index.cfm))” for “(https://www.aidsreagent.org/Index.cfm))”, “HIV-1. […] After each compound was serially diluted, TZM-bl cells (1×10^4) were added, cultured for 48 hours and collected. A Luc reporter reagent was added and the amount of luminescence (reagent: CTG) was measured […].” for “HIV-1.”

[3] = Blood half-life after intravenous injection, blood concentration by HPLC; format: in vivo, Macaque monkey
Protocol: A Macaque monkey (MM616, body weight 8.00 kg) was intravenously injected with YIR-821 at a dose of 192 mg (10.1 mg/mL). A blood sample was taken from the monkey, 21, 39, 63, 91, 98, 113, 143, 201, 328 and 453 minutes later, and the concentration of YIR-821 in the blood was measured by HPLC.
HPLC conditions are as follows. • Measuring device: JASCO PU-2089 plus (JASCO Corporation, Ltd.) • Column: Cosmosil 5C18-ARII column (4.6×250 mm, Nacalai Tesque, Inc.) • Solvent A: H2O containing 0.1% (v/v) TFA • Solvent B: CH3CN containing 0.1% (v/v) TFA • Gradient: 20-50% solvent B in solvent A, 30 minutes • Flow rate: 1 cm^3/min • Detection: Detection at 260 nm-UV
In the same manner as in Reference Example 1, Macaque monkey (MM616, body weight 8.78 kg) was intravenously injected with TKB-002 trifluoroacetate obtained in Example 2 at a dose of 23.4 μmol (33.2 mg/20 mL). A blood sample was taken before, during and after administration (at a time point of 10 minutes, 37 minutes, 1 hour, 2.5 hours, 4.5 hours, 6.5 hours and 24 hours after administration). Blood concentration was measured by HPLC in the same conditions as in Reference Example 1.

[4] = Stability on incubation with human liver microsomes, HPLC; format: in vitro ADME; details: 60 minutes at 37° C., NADPH, NaPB pH 7.4
Protocol: More specifically, TKB-002 trifluoroacetate was dissolved in a 100 mM sodium phosphate buffer (NaPB, pH 7.4) to obtain a 0.3 mM solution. This solution (183 μL) was mixed with 20 mM NADPH (2 μL) in 100 mM NaPB (pH 7.4), and 5 μL of 20 mg/mL human liver microsome (Human Microsomes, 50 Donors (ThermoFisher Scientific, cat #: HMMCPL, Lot #: PL050E-A)) solution. After the mixture was pre-incubated at 37° C. for 5 minutes, 20 mM NADPH solution (10 μL) was added to the mixture, which was incubated while gently stirring for 60 minutes at 37° C.
Subsequently, 200 μL of ethyl acetate was added to the mixture to terminate the reaction. The mixture was stirred by a vortex mixer and centrifuged at 3,000 rpm for 5 minutes. The supernatant was filtered and ethyl acetate was removed with nitrogen gas.
To the mixture, 50 μL of MeCN containing 0.1% TFA was added and analysis was carried out by HPLC in the same conditions as in Reference Example 1 and Example 4.

[5] = Human immunodeficiency virus 1, TZM-bl, 48 h
[6] = TZM-bl cells, 100TCID50 of KP5mvcR, 48 hours

For `CCCCCCCCCCCCCCCCNC(=O)CCC(=O)OC(CCCNC(=N)N)C(=O)NCCN1CCC(NC(=O)C(=O)Nc2ccc(Cl)cc2)CC12CCCCC2` (stereo not drawn) [YIS-527, 1-((2-(4-(2-((4-chlorophenyl)amino)-2-oxoacetamido)-1-azaspiro[5.5]undecan-1-yl)ethyl)amino)-5-guanidino-1-oxopentan-2-yl 4-(hexadecylamino)-4-oxobutanoate], the “SI (selectivity index)” value (HIV isolate (KP5mvcR)) was 14, the IC50 (HIV isolate (KP5mvcR); [5]) was 1.2 ± 0.11 µM and the “decomposition releasing the alkyl or PEG chain” value [1] was “decomposition reaction was observed”. For the same compound, the CC50 at 48 h [2] was 17 ± 0.22 µM.
For `COCCOCCOCCOCCOCCNC(=O)CCC(=O)N[C@@H](CCCNC(=N)N)C(=O)NCCN1CCC(NC(=O)C(=O)Nc2ccc(Cl)cc2)CC12CCCCC2` (stereo partly drawn) [TKB-001, N^1-((2S)-1-((2-(4-(2-((4-chlorophenyl)amino)-2-oxoacetamido)-1-azaspiro[5.5]undecan-1-yl)ethyl)amino)-5-guanidino-1-oxopentan-2-yl)-N4-(2,5,8,11,14-pentaoxahexadecan-16-yl)succinamide], the “SI (selectivity index)” value (HIV isolate (KP5mvcR)) was over 769, the IC50 (HIV isolate (KP5mvcR); [5]) was 0.13 ± 0.026 µM and the CC50 at 48 h [2] was over 100 µM.
In the case of `COCCOCCOCCOCCOCCOCCOCCOCCOCCOCCOCCOCCOCCOCCOCCOCCOCCOCCOCCOCCOCCOCCOCCOCCNC(=O)CCC(=O)N[C@@H](CCCNC(=N)N)C(=O)NCCN1CCC(NC(=O)C(=O)Nc2ccc(Cl)cc2)CC12CCCCC2` (stereo partly drawn) [TKB-003], the IC50 (HIV isolate (KP5mvcR); [6]) is reported as under 0.1 µM and the CC50 (TZM-bl cells) is reported as 40 ± 14 µM.
For `O=C1Nc2ccc(Cl)cc2[C@@](C#CC2CC2)(C(F)(F)F)O1` [EFV, efavirenz, reference compound], the “SI (selectivity index)” value (HIV isolate (KP5mvcR)) was 6,829, the IC50 (HIV isolate (KP5mvcR); [5]) was 0.0041 ± 0.00099 µM and the CC50 at 48 h ([2]; TZM-bl cells, cultured for 48 hours, read-out: CC50) was 28 ± 3.4 µM.
In the case of `COCCOCCOCCOCCOCCNC(=O)CCC(=O)OC(CCCNC(=N)N)C(=O)NCCN1CCC(NC(=O)C(=O)Nc2ccc(Cl)cc2)CC12CCCCC2` (stereo not drawn) [YIS-540, 1-((2-(4-(2-((4-chlorophenyl)amino)-2-oxoacetamido)-1-azaspiro[5.5]undecan-1-yl)ethyl)amino)-5-guanidino-1-oxopentan-2-yl 18-oxo-2,5,8,11,14-pentaoxa-17-azahenicosan-21-oate], the “SI (selectivity index)” value (HIV isolate (KP5mvcR)) is reported as 6412, the IC50 (HIV isolate (KP5mvcR); [5]) is reported as 0.017 ± 0.011 µM and the “decomposition releasing the alkyl or PEG chain” value [1] is reported as “decomposition reaction was observed”. For the same compound, the CC50 at 48 h [2] was 109 ± 8.2 µM.
With `COCCOCCOCCOCCOCCOCCOCCOCCOCCOCCOCCOCCNC(=O)CCC(=O)N[C@@H](CCCNC(=N)N)C(=O)NCCN1CCC(NC(=O)C(=O)Nc2ccc(Cl)cc2)CC12CCCCC2` (stereo partly drawn) [TKB-002, N^1-((2S)-1-((2-(4-(2-((4-chlorophenyl)amino)-2-oxoacetamido)-1-azaspiro[5.5]undecan-1-yl)ethyl)amino)-5-guanidino-1-oxopentane-2-yl)-N^4-(2,5,8,11,14,17,20,23,26,29,32,35-dodecaoxaheptatriacontan-37-yl)succinamide] the “SI (selectivity index)” value (HIV isolate (KP5mvcR)) was >1,000, the IC50 (HIV isolate (KP5mvcR); [5]) was under 0.1 µM and the “blood half-life relative to YIR-821” value ([3]; Macaque monkey, intravenous injection) was 3.48 times. For the same compound, the half-life ([3]; blood, 23.4 μmol, Macaque monkey MM616, intravenous injection) was 1.8 h, the “stability in the presence of human liver microsomes (HPLC peak intensity)” value [4] was “the intensity of the peak was the same as before incubation; also recorded: stable even in the presence of human liver microsomes” and the CC50 at 48 h [2] was over 100 µM.
For `CC1(C)CC(NC(=O)C(=O)Nc2ccc(Cl)cc2)CC(C)(C)N1` [NBD-556, reference compound], the IC50 (HIV isolate (KP5mvcR); [6]) was 0.27 ± 0.052 µM and the CC50 (TZM-bl cells) was 177 ± 9.5 µM.

— patent publication US12508251B2, “CD4 mimic compound with anti-HIV activity” (NATIONAL UNIVERSITY CORPORATION KUMAMOTO UNIVERSITY, priority 2019, dated 2025)
